Reference: EP4748373A1, “PHARMACEUTICAL COMPOSITION CONTAINING HETEROCYCLIC COMPOUND” (Sagimet Biosciences Inc., priority 2023, dated 2025)
≈ marks a conversion by molar mass, not a printed value. Each block holds one compound with its values, some of them ahead of it.

Test: equilibrium solubility experiments in buffer media at different pH conditions
Format: physicochemical
Details: for solubility at 1 h / solubility at 22 h: buffer media, thermodynamic from solid
Excerpt: Additionally, the present invention conducted equilibrium solubility experiments of the monohydrate crystalline API, amorphous API, and hot-melt extrudate dispersion intermediate in buffer media at different pH conditions. Table 3. Summary of equilibrium solubility (µg/ml) of monohydrate crystalline API, amorphous API, and hot-melt extrudate dispersion intermediate

[1] = pH 1.2, simulated gastric fluid, pH 1.2 buffer
[2] = pH 2, simulated gastric fluid, pH 2.0 buffer
[3] = pH 4, aqueous buffer, pH 4.0 buffer
[4] = pH 4.5, aqueous buffer, pH 4.5 buffer
[5] = pH 5, aqueous buffer, pH 5.0 buffer
[6] = pH 6, aqueous buffer, pH 6.0 buffer
[7] = pH 6.8, aqueous buffer, pH 6.8 buffer
[8] = pH 7.5, aqueous buffer, pH 7.5 buffer

- solubility at 1 h [1]: 30.3 µg/mL (≈ 68.9 µM)
- solubility at 22 h [1]: 27.2 µg/mL (≈ 61.8 µM)
- solubility at 1 h [2]: 3.57 µg/mL (≈ 8.12 µM)
- solubility at 22 h [2]: 3.22 µg/mL (≈ 7.33 µM)
- solubility at 1 h (pH 3, aqueous buffer, pH 3.0 buffer): 1.07 µg/mL (≈ 2.43 µM)
- solubility at 1 h [3]: 0.68 µg/mL (≈ 1.55 µM)
- solubility at 22 h [3]: 0.6 µg/mL (≈ 1.36 µM)
- solubility at 1 h [4]: 0.6 µg/mL (≈ 1.36 µM)
- solubility at 22 h [4]: 0.59 µg/mL (≈ 1.34 µM)
- solubility at 1 h [5]: 0.47 µg/mL (≈ 1.07 µM)
- solubility at 22 h [5]: 0.51 µg/mL (≈ 1.16 µM)
- solubility at 1 h [6]: 0.5 µg/mL (≈ 1.14 µM)
- solubility at 22 h [6]: 0.45 µg/mL (≈ 1.02 µM)
- solubility at 1 h [7]: 0.44 µg/mL (≈ 1 µM)
- solubility at 22 h [7]: 0.42 µg/mL (≈ 0.955 µM)
- solubility at 1 h [8]: 0.42 µg/mL (≈ 0.955 µM)
- solubility at 22 h [8]: 0.43 µg/mL (≈ 0.978 µM)
Compound: Cc1nnc(-c2cc(C(=O)N3CCC(c4ccc(C#N)cc4)CC3)c(C)cc2C2CCC2)[nH]1 [4-[1-[4-cyclobutyl-2-methyl-5-(5-methyl-1H-1,2,4-triazol-3-yl)benzoyl]piperidin-4-yl]benzonitrile]

- 1-h solubility (pH 1.2 buffer): 50.93 µg/mL
- 22-h solubility (pH 1.2 buffer): 48.62 µg/mL
- 1-h solubility (pH 2.0 buffer): 4.52 µg/mL
- 22-h solubility (pH 2.0 buffer): 4.45 µg/mL
- 1-h solubility (pH 3.0 buffer): 2.14 µg/mL
- 22-h solubility (pH 3.0 buffer): 2.14 µg/mL
- 1-h solubility (pH 4.0 buffer): 0.76 µg/mL
- 22-h solubility (pH 4.0 buffer): 0.74 µg/mL
- 1-h solubility (pH 4.5 buffer): 0.65 µg/mL
- 22-h solubility (pH 4.5 buffer): 0.57 µg/mL
- 1-h solubility (pH 5.0 buffer): 0.51 µg/mL
- 22-h solubility (pH 5.0 buffer): 0.42 µg/mL
- 1-h solubility (pH 6.0 buffer): 0.46 µg/mL
- 22-h solubility (pH 6.0 buffer): 0.44 µg/mL
- 1-h solubility (pH 6.8 buffer): 0.46 µg/mL
- 22-h solubility (pH 6.8 buffer): 0.45 µg/mL
- 1-h solubility (pH 7.5 buffer): 0.54 µg/mL
- 22-h solubility (pH 7.5 buffer): 0.48 µg/mL
Compound: Cc1nnc(-c2cc(C(=O)N3CCC(c4ccc(C#N)cc4)CC3)c(C)cc2C2CCC2)[nH]1 [Compound of formula (I) (amorphous API), 4-[1-[4-cyclobutyl-2-methyl-5-(5-methyl-1H-1,2,4-triazol-3-yl)benzoyl]piperidin-4-yl]benzonitrile]

- 22-h solubility (pH 3.0 buffer): 0.97 µg/mL
Compound: Cc1nnc(-c2cc(C(=O)N3CCC(c4ccc(C#N)cc4)CC3)c(C)cc2C2CCC2)[nH]1 [Compound of formula (I) (monohydrate crystalline form)] [4-[1-[4-cyclobutyl-2-methyl-5-(5-methyl-1H-1,2,4-triazol-3-yl)benzoyl]piperidin-4-yl]benzonitrile]
